Tests used:
INS-GFP+ cells = experiment: RNA-seq of INS-GFP+ cells; format: cell-based, human; conditions: 1.6 µM propargite-treated INS-GFP+ cells
From the text: The INS-GFP^+ cells were sorted and RNA from the sorted cells was extracted with Absolutely RNA Nanoprep kit (Agilent Technologies, 400753). The RNA quality was validated with a bioanalyzer (Agilent). The cDNA libraries were synthesized using the TruSeq RNA Sample Preparation kit (Illumina) and sequenced in single-read with the HiSeq2000/1000 sequencer (Illumina) at Weill Cornell Genomics Resources Core Facility. The reads were aligned to the human hg19 reference genome with Tophat2[48]. Gene expression data were analyzed with Cufflinks[49]. To generate heat maps displaying the differential gene expression patterns of different samples, the RPKM values were normalized per gene over all samples. The heat maps were then generated by Heatmap.2 in the R plots package. David functional annotation tool[50] was used for gene ontology analysis and Ingenuity Pathway Analysis tool was used for pathway analysis.

MIN6 cells [1] = experiment: MIN6 cell survival inhibitory curve; format: cell-based, mouse; conditions: cell survival rate; read-out: IC50, MIN6 cell death
GSTT1+/+ INS+ cells = experiment: Inhibition curve on INS+ cells derived from GSTT1+/+ H1 hESCs; format: cell-based, human; conditions: H1 hESC-derived, n = 3; read-out: IC50 of GSTT1+/+-1 INS+ cells
Protocol: (§1) hESCs-derived INS^+ cells, MSCs[43], neurons, and hepatocytes[44] were derived based on the reported protocols and re-plated on 96-well plates with Accutase digestion. Cardiomyocytes (CMs) were differentiated from H9-MYH6: mCherry reporter line, based on the reported protocol. After overnight incubation, cells were treated with DMSO or different doses of hit compounds for 4 days. After fixation, the cells were stained with markers for each cell type. DAPI was used to stain cell nuclei. Plates were analyzed by ImageXpress^MICRO Automated High-Content Analysis System.
CRISPR sgRNA sequences were designed using the web resources available at http://www.genome-engineering.org/. The target sequences are listed in Supplementary Table 2. Each target sequence was cloned into the pX330-U6-Chimeric_BB-CBh-hSpCas9 vector (Addgene plasmid #42230) to make the gene targeting constructs. To knockout the target genes, two sgRNAs were validated using the surveyor assay in 293T cells, and we chose 1 sgRNA-construct plasmid for further experiments. After validation, H1 or INS^GFP/W HES3 cells were dissociated using Accutase (STEM CELL) and electroporated (8 × 10^5 cells per sample) with 4 μg sgRNA-construct plasmids using Human Stem Cell Nucleofector^TM solution (Lonza) following manufacturer’s instructions. […] A portion of the cells was analyzed by DNA sequencing. […]

MIN6 cells [2] = experiment: Intracellular ROS detection; conditions: propargite-treated MIN6 cells
Protocol: Total intracellular ROS were detected using DCFDA-Cellular Reactive Oxygen Species Detection Assay Kit (Abcam, ab113851).
Species detection for different doses of propargite-treated MIN6 cells (n=3). 50 µM TBHP
was used as a positive control.

primary human islets = experiment: Primary human islets, INS and propidium iodide staining; format: cell-based; conditions: 4 days treatment
From the text: Fig. 1 A high-content screen identifies propargite as a compound that induces pancreatic β-cell death. a Scheme of pancreatic β-cell differentiation and high-content chemical screen. b Chemical structure of two hit compounds: Propargite and Vacor. c Inhibitory curve and IC50 of propargite or Vacor on INS^+ and INS^− cells (n = 8). d, e Immunocytochemistry analysis (d) and survival rate (e) of H1-derived glucose-responding INS^+ and INS^− cells treated with different doses of propargite (n = 8). Pancreatic β-like cells were stained for INS (green) and all cells were counterstained by DAPI (blue). Scale bars, 100 μm. The survival rate was calculated by dividing the average number of cells in propargite-treated conditions by the average number of cells in the DMSO control. f, g Representative live images (f) and fold-change (g) of INS^w/GFP HES3-derived INS-GFP^+ cells treated with 1.6 μM propargite or DMSO control at different time points compared to initial time 0 (n = 3). Scale bars, 100 μm. h, i, j Representative images (h) and cell survival rate (i) or cell death rate (j) of DMSO or propargite-treated human primary islets (n = 3). Pancreatic β-cells were stained with the INS antibody (green) and dead cells were stained with propidium iodide (PI) (red). Scale bars, 200 μm. Scale bars for higher resolution (Zoom) images, […]. Pancreatic β-cell death rate was calculated by defining percentages of INS^+ PI^+ cells in INS^+ cells, and non-β-cell death rate was calculated by percentages of INS^−PI^+ cells in INS^− cells.

A1AT+ hepatocytes = experiment: Inhibition curve on hESC-derived hepatocytes; format: cell-based, human; conditions: cell survival rate, 4 days, n=3
Protocol: as §1
Supplementary Figure 4. Assessment of the toxic effect of propargite on different type […]
(a) Flow cytometry char acterization of CD29+ and CD73+ mesenchymal stem cells (MSCs) derived from H1 hESCs. (b-c) microscope image (b) and flow cytometry (c) characterization of cardiomyocytes expressing MYH6+ derived from a MYH6:mCherry reporter hESC line. (d-e) Immunocytochemistry characterization of MAP2+/TUJ1+ and HuC/D+/MAP2+ neurons (d) and A1AT+/ASGPR1+ hepatocytes (e) derived from H1 hESCs. All the cells were counterstained by DAPI (blue). Scale bars, 100 µm. (f) Inhibition curve of propargite on pancreatic β-like cells, MSCs, cardiomyocytes, neurons, and hepatocytes derived from hESCs, and BJ-fibroblasts (n=3). Values presented as mean±S.D. […]

2-(4-tert-butylphenoxy)-cyclohexyl prop-2-yne-1-sulfonate [propargite]
fold-change of upregulated DNA damage genes (DDIT3, GADD45A) (INS-GFP+ cells): > 3
IC50 (MIN6 cells [1]): 1000 nM
IC50 (GSTT1+/+ INS+ cells): 2150 nM
reactive oxygen species (ROS) (MIN6 cells [2]): did not find any increase
number of INS+ cells in primary human islets (primary human islets): decreased
percentage of PI+/INS+ cells in INS+ cells (primary human islets): increased percentage
IC50 (A1AT+ hepatocytes): 13000 nM

Reference: article PMC6240096, “A hPSC-based platform to discover gene-environment interactions that impact human β-cell and dopamine neuron survival” (Nature Communications, 2018)
